Patent US20220354957A1, “PEPTIDES TARGETING MACROPHAGES, AND CONJUGATES, COMPOSITIONS, AND USES THEREOF” (Twinpig Biolab, Inc., priority 2021, published 2022)
Where no end group is shown, it is not given here.

What was measured:
[1] = tested on: THP-1-derived M2 macrophages; test: Cytotoxicity assay (CCK-8 cell viability); type: cell-based, human; settings: 0.05-20 μM, 24 h
Description: THP-1 cells were differentiated into macrophages by 24 h incubation with 100 nM PMA and polarized in M2 macrophages by incubation with 20 ng/ml of IL-4 and 20 ng/ml of IL-13 for 72 h. Polarized cells were treated with increasing concentrations of TAMpep and fragments of TAMpep (0.05-20 μM) for 24 h. Cell viability was analyzed using the CCK-8 assay: CCK-8 reagent (Enzo Life Sciences) was added to each well; incubation was continued for 2 hours, and absorbance was measured at 450 nm with a microplate reader (Molecular Devices).

[2] = tested on: TRAMP-C2 cells; test: Mouse model of prostate cancer (subcutaneous TRAMP-C2); type: in vivo; settings: TRAMP-C2 prostate cancer model
Excerpt: BALB/c and C57BL/6 (B6) wild-type mice were purchased from DBL. For the subcutaneous tumor model of melanoma and prostate cancer, CT26 (3×10^5 cells/mouse), B16F10 (1×10^6 cells/mouse) and TRAMP-C2 cells (1×10^6 cells/mouse) were mixed with Matrigel matrix (Corning) and inoculated subcutaneously into the right flank of the mice, and 4T1 (1×10^5 cells/mouse) cells mixed with Matrigel matrix and inoculated into a 4th mammary fat pad of the mice. TAMpepK, and MpepK peptides (200 nmol/kg) were injected intraperitoneally every 3 days, beginning at day 7 after tumor inoculation, and tumor volume was measured by electronic caliper. All tumor tissues were harvested after the end of the study and tumor weight was measured by an electronic balance.
Cells were harvested and lysed in PRO-PREP protein extraction solution (iNtRON, Bio Inc, Sungnam, Korea). Protein concentrations were measured with a Bradford Protein Assay Reagent kit (Bio-Rad, Richmond, CA, USA). Proteins were fractionated by 10% SDS-polyacrylamide gels electrophoresis (PAGE), and transferred onto polyvinylidene difluoride (PVDF) membranes. These were incubated with anti-arginase 1, anti-CD206, anti-caspase 3, anti-E-cadherin, anti-fibronectin, anti-PCNA, anti-TGF-β, anti-MMP9, and anti-β-actin Ab as primary antibodies. Goat anti-rabbit horseradish peroxidase-conjugated IgG or goat anti-mouse horseradish peroxidase-conjugated IgG (Abcam, Cambridge, Mass., USA) served as secondary antibodies. Protein bands were detected with a chemiluminescence reagent kit (SurModics).

[3] = tested on: THP-1-derived M2 macrophages; test: Affinity test of FITC-conjugated peptides by flow cytometry; type: cell-based, human
Description: THP-1 monocytes were differentiated into macrophages by 24 h incubation with 100 nM phorbol 12-myristate 13-acetate (PMA, Sigma) followed by 24 h incubation in RPMI medium (Invitrogen). Macrophages were polarized in M1 macrophages (M1) by incubation with 20 ng/ml of IFN-γ (Prospec) and 100 ng/ml of LPS (Sigma). Macrophage M2 polarization(M2) was obtained by incubation with 20 ng/ml of interleukin (IL) 4 (Prospec) and 20 ng/ml of interleukin 13 (Prospec). M2-like tumor-associated macrophages were polarized by incubation with 20% conditioned medium of PC3 cells.
THP-1 cells were differentiated into macrophages by a 24 h incubation with 100 nM PMA and polarized in M2 macrophages by incubation with 20 ng/ml of IL-4 and 20 ng/ml of IL-13 for 72 h. Polarized cells were treated with 50 nM TAMpep and fragments of TAMpep or Mpep and alanine library of Mpep conjugated with FITC for 1 h. To test change of macrophage population in melanoma tissue, the single cells were isolated from tumor tissue through a 40 μm nylon mesh strainer after dissociation by DNase I (1 U/mL) and collagenase D (1 mg/ml). Cells were detected on BD FACSCalibur and BD FACSCantoII instruments and analyzed by FlowJo software.

[4] = tested on: M2 macrophages; test: Affinity by immunofluorescence microscopy; type: cell-based, human

CC[C@H](C)[C@H](NC(=O)[C@H](CC(C)C)NC(=O)[C@H](C)NC(=O)[C@@H]1CCCN1C(=O)[C@H](CC(C)C)NC(=O)CNC(=O)[C@@H](NC(=O)[C@@H](NC(=O)[C@H](CC(C)C)NC(=O)[C@@H](NC(C)=O)C(C)C)[C@@H](C)O)[C@@H](C)O)C(=O)N[C@@H](CO)C(=O)N[C@@H](Cc1c[nH]c2ccccc12)C(=O)N[C@H](C(=O)N[C@@H](CCCCN)C(=O)N[C@@H](CCCNC(=N)N)C(=O)N[C@@H](CCCCN)C(=O)N[C@@H](CCCNC(=N)N)C(=O)N[C@@H](CCC(N)=O)C(=O)N[C@@H](CCC(N)=O)C(=O)O)[C@@H](C)CC [Mpep, Val-Leu-Thr-Thr-Gly-Leu-Pro-Ala-Leu-Ile-Ser-Trp-Ile-Lys-Arg-Lys-Arg-Gln-Gln]
cytotoxic effect in M2 macrophages (in words) [1]: low cytotoxicity

CC[C@H](C)[C@H](NC(=O)CN)C(=O)NCC(=O)N[C@@H](C)C(=O)N[C@H](C(=O)N[C@@H](CC(C)C)C(=O)N[C@@H](CCCCN)C(=O)N[C@H](C(=O)N[C@@H](CC(C)C)C(=O)N[C@H](C(=O)N[C@H](C(=O)NCC(=O)N[C@@H](CC(C)C)C(=O)N1CCC[C@H]1C(=O)N[C@@H](C)C(=O)N[C@@H](CC(C)C)C(=O)N[C@H](C(=O)N[C@@H](CO)C(=O)N[C@@H](Cc1c[nH]c2ccccc12)C(=O)N[C@H](C(=O)N[C@@H](CCCCN)C(=O)N[C@@H](CCCNC(=N)N)C(=O)N[C@@H](CCCCN)C(=O)N[C@@H](CCCNC(=N)N)C(=O)N[C@@H](CCC(N)=O)C(=O)N[C@@H](CCC(N)=O)C(N)=O)[C@@H](C)CC)[C@@H](C)CC)[C@@H](C)O)[C@@H](C)O)C(C)C)C(C)C [TAMpep, reference compound]
body weight of mice [2]: did not significantly change | affinity in M2 macrophages compared to M0 and M1 macrophages ([3]; FITC-conjugated peptides, THP-1-derived M0, M1, M2, FACS): significantly more high affinity | affinity in M2 macrophages by immunofluorescence microscopy [4]: high affinity

CC(=O)N[C@H](CCCCN)C(=O)N[C@H](CC(C)C)C(=O)N[C@H](C)C(=O)N[C@H](CCCCN)C(=O)N[C@H](CC(C)C)C(=O)N[C@H](C)C(=O)N[C@H](CCCCN)C(=O)N[C@H](CCCCN)C(=O)N[C@H](CC(C)C)C(=O)N[C@H](C)C(=O)N[C@H](CCCCN)C(=O)N[C@H](CC(C)C)C(=O)N[C@H](C)C(=O)N[C@H](CCCCN)C(=O)O [dKLA, d-Lys-d-Leu-d-Ala-d-Lys-d-Leu-d-Ala-d-Lys-d-Lys-d-Leu-d-Ala-d-Lys-d-Leu-d-Ala-d-Lys, reference compound]
body weight of mice [2]: did not significantly change

A18: the eleventh S (serine) of Mpep is substituted with alanine (SEQ ID NO:21) (Ac-VLTTGLPALIAWIKRKRQQ)
affinity of alanine-substituted Mpep peptides in M2 macrophages ([3]; alanine-substituted library of Mpep, FITC-conjugated, FACS): increased affinity
